Laboratory results: ChEMBL document CHEMBL2062415, “Steroids from Commiphora mukul display antiproliferative effect against human prostate cancer PC3 cells via induction of apoptosis” (Bioorg Med Chem Lett, 2012)

How the values were obtained:
PC-3 [1] = test: Cytotoxicity against human PC3 cells assessed as cell viability at 10 uM after 24 hrs by MTT assay; assay type: functional; conditions: PC-3, 24 h, read-out: Activity
PC-3 [2] = test: Induction of apoptosis in human PC3 cells assessed as early apoptotic cells at 40 uM after 48 hrs by annexinV/propidium iodide staining-based FITC analysis relative to control; assay type: functional
PC-3 [3] = test: Induction of apoptosis in human PC3 cells assessed as late apoptotic cells at 30 uM after 48 hrs by annexinV/propidium iodide staining-based FITC analysis relative to control; assay type: functional
PC-3 [4] = test: Induction of apoptosis in human PC3 cells assessed as late apoptotic cells at 40 uM after 48 hrs by annexinV/propidium iodide staining-based FITC analysis relative to control; assay type: functional
PC-3 [5] = test: Cell cycle arrest in human PC3 cells assessed as accumulation at G2/M phase at 30 uM after 48 hrs by propidium iodide staining-based flow cytometric analysis relative to control; assay type: functional
PC-3 [6] = test: Cell cycle arrest in human PC3 cells assessed as accumulation at G0/G1 phase at 40 uM after 48 hrs by propidium iodide staining-based flow cytometric analysis relative to control; assay type: functional
K562 [7] = test: Cytotoxicity against human K562 cells assessed as cell viability at 10 uM after 24 hrs by MTT assay; assay type: functional; conditions: K562, 24 h, read-out: Activity
PC-3 [8] = test: Cell cycle arrest in human PC3 cells assessed as accumulation at S phase at 30 uM after 48 hrs by propidium iodide staining-based flow cytometric analysis relative to control; assay type: functional
DU-145 = test: Cytotoxicity against human DU145 cells after 24 hrs by MTT assay; assay type: functional, cell-based; conditions: DU-145, 24 h
PC-3 [9] = test: Cell cycle arrest in human PC3 cells assessed as accumulation at G2/M phase at 20 uM after 48 hrs by propidium iodide staining-based flow cytometric analysis relative to control; assay type: functional
PC-3 [10] = test: Induction of apoptosis in human PC3 cells assessed as early apoptotic cells at 20 uM after 48 hrs by annexinV/propidium iodide staining-based FITC analysis relative to control; assay type: functional
PC-3 [11] = test: Cytotoxicity against human PC3 cells after 24 hrs by MTT assay; assay type: functional, cell-based; conditions: PC-3, 24 h
MCF7 [12] = test: Cytotoxicity against human MCF7 cells assessed as cell viability at 10 uM after 24 hrs by MTT assay; assay type: functional; conditions: MCF7, 24 h, read-out: Activity
PC-3 [13] = test: Cell cycle arrest in human PC3 cells assessed as accumulation at G0/G1 phase at 30 uM after 48 hrs by propidium iodide staining-based flow cytometric analysis relative to control; assay type: functional
PC-3 [14] = test: Cell cycle arrest in human PC3 cells assessed as accumulation at G0/G1 phase after 48 hrs by propidium iodide staining-based flow cytometric analysis; assay type: functional
PC-3 [15] = test: Induction of apoptosis in human PC3 cells assessed as early apoptotic cells at 30 uM after 48 hrs by annexinV/propidium iodide staining-based FITC analysis relative to control; assay type: functional
PC-3 [16] = test: Cell cycle arrest in human PC3 cells assessed as accumulation at G0/G1 phase at 20 uM after 48 hrs by propidium iodide staining-based flow cytometric analysis relative to control; assay type: functional
PC-3 [17] = test: Cell cycle arrest in human PC3 cells assessed as accumulation at S phase at 20 uM after 48 hrs by propidium iodide staining-based flow cytometric analysis relative to control; assay type: functional
PC-3 [18] = test: Cell cycle arrest in human PC3 cells assessed as accumulation at G2/M phase at 40 uM after 48 hrs by propidium iodide staining-based flow cytometric analysis relative to control; assay type: functional
PC-3 [19] = test: Induction of apoptosis in human PC3 cells assessed as necrotic cells at 40 uM after 48 hrs by annexinV/propidium iodide staining-based FITC analysis relative to control; assay type: functional
PC-3 [20] = test: Induction of apoptosis in human PC3 cells assessed as necrotic cells at 30 uM after 48 hrs by annexinV/propidium iodide staining-based FITC analysis relative to control; assay type: functional
MCF7 [21] = test: Cytotoxicity against human MCF7 cells after 24 hrs by MTT assay; assay type: functional, cell-based; conditions: MCF7, 24 h
PC-3 [22] = test: Induction of apoptosis in human PC3 cells assessed as late apoptotic cells at 20 uM after 48 hrs by annexinV/propidium iodide staining-based FITC analysis relative to control; assay type: functional
PC-3 [23] = test: Induction of apoptosis in human PC3 cells assessed as necrotic cells at 20 uM after 48 hrs by annexinV/propidium iodide staining-based FITC analysis relative to control; assay type: functional
PC-3 [24] = test: Cell cycle arrest in human PC3 cells assessed as accumulation at S phase at 40 uM after 48 hrs by propidium iodide staining-based flow cytometric analysis relative to control; assay type: functional
K562 [25] = test: Cytotoxicity against human K562 cells after 24 hrs by MTT assay; assay type: functional, cell-based; conditions: K562, 24 h
PC-3 [26] = test: Induction of apoptosis in human PC3 cells assessed as necrotic cells at 10 uM after 48 hrs by annexinV/propidium iodide staining-based FITC analysis relative to control; assay type: functional
PC-3 [27] = test: Cell cycle arrest in human PC3 cells assessed as accumulation at G0/G1 phase at 10 uM after 48 hrs by propidium iodide staining-based flow cytometric analysis relative to control; assay type: functional
PC-3 [28] = test: Cell cycle arrest in human PC3 cells assessed as accumulation at G2/M phase at 10 uM after 48 hrs by propidium iodide staining-based flow cytometric analysis relative to control; assay type: functional
PC-3 [29] = test: Induction of apoptosis in human PC3 cells assessed as early apoptotic cells at 10 uM after 48 hrs by annexinV/propidium iodide staining-based FITC analysis relative to control; assay type: functional
PC-3 [30] = test: Induction of apoptosis in human PC3 cells assessed as late apoptotic cells at 10 uM after 48 hrs by annexinV/propidium iodide staining-based FITC analysis relative to control; assay type: functional
PC-3 [31] = test: Cell cycle arrest in human PC3 cells assessed as accumulation at S phase at 10 uM after 48 hrs by propidium iodide staining-based flow cytometric analysis relative to control; assay type: functional

## CC[C@H](/C=C/[C@@H](C)[C@H]1CC[C@H]2[C@@H]3CC=C4C[C@@H](O)CC[C@]4(C)[C@H]3[C@H](O)C[C@]12C)C(C)C
PC-3 [1]
  viability at 10 µM: 94.5%
PC-3 [2]
  Activity: 1.32%
PC-3 [3]
  Activity: 2.95%
PC-3 [4]
  Activity: 2.49%
PC-3 [5]
  Activity: 13.33%
PC-3 [6]
  Activity: 76.37%
K562 [7]
  viability at 10 µM: 43%
PC-3 [8]
  Activity: 16.4%
DU-145
  IC50: 46.8 µM
PC-3 [9]
  Activity: 18.47%
PC-3 [10]
  Activity: 1.77%
PC-3 [11]
  IC50: 32.4 µM
MCF7 [12]
  viability at 10 µM: 68%
PC-3 [13]
  Activity: 70.27%
PC-3 [14]
  Activity: Dose-dependent effect
PC-3 [15]
  Activity: 1.14%
PC-3 [16]
  Activity: 59.89%
PC-3 [17]
  Activity: 21.63%
PC-3 [18]
  Activity: 12.39%
PC-3 [19]
  Activity: 1.52%
PC-3 [20]
  Activity: 1.41%
MCF7 [21]
  IC50: 13.5 µM
PC-3 [22]
  Activity: 1.91%
PC-3 [23]
  Activity: 0.96%
PC-3 [24]
  Activity: 11.24%
K562 [25]
  IC50: 7.18 µM

## C/C=C1\C(=O)C[C@H]2[C@@H]3CCC4=CC(=O)CC[C@]4(C)[C@H]3CC[C@]12C [GUGGULSTERONE]
PC-3 [1]
  viability at 10 µM: 80%
K562 [7]
  viability at 10 µM: 84%
MCF7 [12]
  viability at 10 µM: 65%

## COc1cccc2c1C(=O)c1c(O)c3c(c(O)c1C2=O)C[C@@](O)(C(=O)CO)C[C@@H]3O[C@H]1C[C@H](N)[C@H](O)[C@H](C)O1 [DOXORUBICIN]
DU-145
  IC50: 13.2 µM
PC-3 [11]
  IC50: 8.46 µM
MCF7 [21]
  IC50: 1.37 µM
K562 [25]
  IC50: 3.79 µM

## CC[C@H](/C=C/[C@@H](C)[C@H]1CC[C@H]2[C@@H]3CC=C4C[C@@H](O)CC[C@]4(C)[C@H]3CC[C@]12C)C(C)C [STIGMASTEROL]
PC-3 [1]
  viability at 10 µM: 60%
PC-3 [2]
  Activity: 2.73%
PC-3 [4]
  Activity: 5.42%
PC-3 [6]
  Activity: 50.58%
K562 [7]
  viability at 10 µM: 43%
DU-145
  IC50: 22.7 µM
PC-3 [26]
  Activity: 1.05%
PC-3 [9]
  Activity: 18.19%
PC-3 [10]
  Activity: 2.3%
PC-3 [27]
  Activity: 52.07%
PC-3 [11]
  IC50: 18.3 µM
MCF7 [12]
  viability at 10 µM: 68%
PC-3 [28]
  Activity: 21.03%
PC-3 [16]
  Activity: 51.41%
PC-3 [29]
  Activity: 2.78%
PC-3 [17]
  Activity: 30.4%
PC-3 [18]
  Activity: 21.03%
PC-3 [19]
  Activity: 2.07%
MCF7 [21]
  IC50: 21.4 µM
PC-3 [30]
  Activity: 3.18%
PC-3 [22]
  Activity: 3.77%
PC-3 [23]
  Activity: 1.51%
PC-3 [24]
  Activity: 36.4%
K562 [25]
  IC50: 11.1 µM
PC-3 [31]
  Activity: 26.9%
